In paper PMC10296720, “A Truncated 14-Amino-Acid Myelin Protein-Zero-Targeting Peptide for Fluorescence-Guided Nerve-Preserving Surgery” (Biomolecules, 2023):
Values after ≈ are worked out from the molar mass of the structure shown. Where two headings read alike, the source gives them in different places. Where a SMILES comes first, the peptide text is derived from it. The star is where a group is joined. X1 = CC1(C)C(/C=C/C=C/C=C2/N(CCCCS(=O)(=O)O)c3ccc(S(=O)(=O)O)cc3C2(C)C)=[N+](CCCCCC(=O)NCCN2C(=O)CC(*)C2=O)c2ccc(S(=O)(=O)[O-])cc21; X2 = CC1(C)C(=CC=CC=CC2=[N+](CCCCS(=O)(=O)[O-])c3ccc(S(=O)(=O)O)cc3C2(C)C)N(CCCCCC(=O)NCCN2C(=O)CC(*)C2=O)c2ccc(S(=O)(=O)O)cc21

How the values were obtained:
Serum binding = assay type: in vitro ADME; conditions: as previously described (refs 27, 31, 36)
Experimental: (§1) Determination of the chemical and photophysical properties (LogP, solubility, serum binding, net charge, and brightness) was performed as previously described.

Solubility = assay type: physicochemical; conditions: as previously described (refs 27, 31, 36)
Experimental: as §1

LogP = assay type: physicochemical; conditions: as previously described (refs 27, 31, 36)
Experimental: as §1

P0 = molecular target: T1, P0 (Rattus norvegicus, UniProt P06907); test: P0 affinity (KD) via flow cytometry saturation binding; conditions: saturation binding on P0-expressing RT4 D6P2T Schwannoma cells, flow cytometry (APC-A), 0–2000 nM, triplicate, repeated at least two times per tracer
T1 construct: performed using P0-expressing RT4 D6P2T cells; host or cells: RT4 D6P2T myelinating Schwannoma cells
T1 sequence (P06907 30-248): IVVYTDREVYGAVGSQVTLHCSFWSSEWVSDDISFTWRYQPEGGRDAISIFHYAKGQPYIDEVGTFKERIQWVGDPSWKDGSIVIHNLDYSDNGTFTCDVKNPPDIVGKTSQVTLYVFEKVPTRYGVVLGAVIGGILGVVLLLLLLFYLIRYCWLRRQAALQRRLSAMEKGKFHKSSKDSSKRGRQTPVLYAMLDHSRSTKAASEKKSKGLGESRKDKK
Experimental: The mean fluorescence intensity values per sample were measured using an LSRII flow cytometer (BD Biosciences, Franklin Lakes, NJ, USA) with APC-A settings (635 nm laser and 750 nm long-pass filter) for a Cy5 dye. […] For the affinity assessment, fluorescence was measured using a FACSCanto II flow cytometry device (BD Biosciences, Franklin Lakes, NJ, USA) in the APC-A channel, and the accompanying FlowJo^TM v5 software (BD Biosciences, Franklin Lakes, NJ, USA) was used for further analysis.
Saturation binding experiments were performed for each of the fluorescent peptides in a concentration range of 0–2000 nM. All measurements were performed in triplicate, and experiments were repeated at least two times per tracer. The fluorescence was measured using a FACSCanto II flow cytometry device (BD Biosciences) in the APC-A channel, and the accompanying FlowJo software was used for further analysis. KD assessment was performed using the normalized geometric means, which were fitted with equations in GraphPad Prism 5 software.
A statistical evaluation to compare the affinity (KD) was performed using unpaired Student’s t-test. Values of p < 0.05 were considered significant.

Brightness (in HSA) = assay type: physicochemical, human
Experimental: as §1

| fraction unbound (Serum binding) | Solubility (Solubility) [µM] | LogP (LogP) | Kd (P0) [nM] | Solubility (Solubility; listed as Cy5P0_112–125) | LogP (LogP; read-out: LogP) | SMILES | increase in brightness versus lead Cy5-P0_101–125 (Brightness (in HSA); in HSA) | Brightness (in HSA) (Brightness (in HSA); in human serum albumin) |
| --- | --- | --- | --- | --- | --- | --- | --- | --- |
| 0.29 | 150 (≈ 269 µg/mL) | −1.59 + 0.01 |  |  |  | CC(=O)N[C@@H](CCCCN)C(=O)N[C@H](C(=O)N1CCC[C@H]1C(=O)N[C@H](C(=O)N[C@@H](CCCNC(=N)N)C(=O)N[C@@H](Cc1ccc(O)cc1)C(=O)N[C@@H](CSC1CC(=O)N(CCNC(=O)CCCCC[N+]2=C(/C=C/C=C/C=C3/N(CCCCS(=O)(=O)O)c4ccc(S(=O)(=O)O)cc4C3(C)C)C(C)(C)c3cc(S(=O)(=O)[O-])ccc32)C1=O)C(N)=O)[C@@H](C)O)C(C)C (some centres unmarked) [Cy5-P0_120–125] (Ac-KVPTRYC(X1)-NH2) |  |  |
|  | 71 (≈ 197 µg/mL) | −1.08 + 0.03 | 69 | relatively low solubility |  | CC(=O)N[C@@H](CCC(N)=O)C(=O)N[C@H](C(=O)N[C@H](C(=O)N[C@@H](CC(C)C)C(=O)N[C@@H](Cc1ccc(O)cc1)C(=O)N[C@H](C(=O)N[C@@H](Cc1ccccc1)C(=O)N[C@@H](CCC(=O)O)C(=O)N[C@@H](CCCCN)C(=O)N[C@H](C(=O)N1CCC[C@H]1C(=O)N[C@H](C(=O)N[C@@H](CCCNC(=N)N)C(=O)N[C@@H](Cc1ccc(O)cc1)C(=O)N[C@@H](CSC1CC(=O)N(CCNC(=O)CCCCC[N+]2=C(/C=C/C=C/C=C3/N(CCCCS(=O)(=O)O)c4ccc(S(=O)(=O)O)cc4C3(C)C)C(C)(C)c3cc(S(=O)(=O)[O-])ccc32)C1=O)C(N)=O)[C@@H](C)O)C(C)C)C(C)C)[C@@H](C)O)C(C)C (some centres unmarked) [Cy5-P0_112–125] (Ac-QVTLYVFEKVPTRYC(X1)-NH2) |  |  |
| 0.4 | >400 |  | > 1000 |  | -0.8 ± 0.16 | CC[C@H](C)[C@H](NC(=O)[C@H](CC(=O)O)NC(=O)[C@@H]1CCCN1C(=O)[C@@H]1CCCN1C(=O)[C@H](CC(N)=O)NC(=O)[C@H](CCCCN)NC(C)=O)C(=O)N[C@H](C(=O)NCC(=O)N[C@@H](CCCCN)C(=O)N[C@H](C(=O)N[C@@H](CO)C(=O)N[C@@H](CCC(N)=O)C(=O)N[C@H](C(=O)N[C@H](C(=O)N[C@@H](CC(C)C)C(=O)N[C@@H](CSC1CC(=O)N(CCNC(=O)CCCCC[N+]2=C(/C=C/C=C/C=C3/N(CCCCS(=O)(=O)O)c4ccc(S(=O)(=O)O)cc4C3(C)C)C(C)(C)c3cc(S(=O)(=O)[O-])ccc32)C1=O)C(N)=O)[C@@H](C)O)C(C)C)[C@@H](C)O)C(C)C (some centres unmarked) [Cy5-P0_101–115] (Ac-KNPPDIVGKTSQVTLC(X1)-NH2) |  |  |
| 0.45 | >400 |  | > 1000 |  | -0.73 ± 0.12 | CC[C@H](C)[C@H](NC(=O)[C@H](CC(=O)O)NC(=O)[C@@H]1CCCN1C(=O)[C@@H]1CCCN1C(=O)[C@H](CC(N)=O)NC(=O)[C@H](CCCCN)NC(C)=O)C(=O)N[C@H](C(=O)NCC(=O)N[C@@H](CCCCN)C(=O)N[C@H](C(=O)N[C@@H](CSC1CC(=O)N(CCNC(=O)CCCCC[N+]2=C(/C=C/C=C/C=C3/N(CCCCS(=O)(=O)O)c4ccc(S(=O)(=O)O)cc4C3(C)C)C(C)(C)c3cc(S(=O)(=O)[O-])ccc32)C1=O)C(N)=O)[C@@H](C)O)C(C)C (some centres unmarked) [Cy5-P0_101–110] (Ac-KNPPDIVGKTC(X1)-NH2) |  |  |
| 0.31 |  | −1.34 + 0.03 | 83 |  |  | CC(=O)NCC(=O)N[C@@H](CCCCN)C(=O)N[C@H](C(=O)N[C@@H](CO)C(=O)N[C@@H](CCC(N)=O)C(=O)N[C@H](C(=O)N[C@H](C(=O)N[C@@H](CC(C)C)C(=O)N[C@@H](Cc1ccc(O)cc1)C(=O)N[C@H](C(=O)N[C@@H](Cc1ccccc1)C(=O)N[C@@H](CCC(=O)O)C(=O)N[C@@H](CCCCN)C(=O)N[C@H](C(=O)N1CCC[C@H]1C(=O)N[C@H](C(=O)N[C@@H](CCCNC(=N)N)C(=O)N[C@@H](Cc1ccc(O)cc1)C(=O)N[C@@H](CSC1CC(=O)N(CCNC(=O)CCCCC[N+]2=C(/C=C/C=C/C=C3/N(CCCCS(=O)(=O)O)c4ccc(S(=O)(=O)O)cc4C3(C)C)C(C)(C)c3cc(S(=O)(=O)[O-])ccc32)C1=O)C(N)=O)[C@@H](C)O)C(C)C)C(C)C)[C@@H](C)O)C(C)C)[C@@H](C)O (some centres unmarked) [Cy5-P0_108–125] (Ac-GKTSQVTLYVFEKVPTRYC(X1)-NH2) |  |  |

Second part, the compound before the results:

| SMILES | fraction unbound (Serum binding) | Solubility (Solubility) [µM] | LogP (LogP) | Kd (P0) [nM] | Solubility (Solubility; listed as Cy5P0_112–125) | LogP (LogP; read-out: LogP) | increase in brightness versus lead Cy5-P0_101–125 (Brightness (in HSA); in HSA) | Brightness (in HSA) (Brightness (in HSA); in human serum albumin) |
| --- | --- | --- | --- | --- | --- | --- | --- | --- |
| CC(=O)N[C@@H](Cc1ccc(O)cc1)C(=O)N[C@H](C(=O)N[C@@H](Cc1ccccc1)C(=O)N[C@@H](CCC(=O)O)C(=O)N[C@@H](CCCCN)C(=O)N[C@H](C(=O)N1CCC[C@H]1C(=O)N[C@H](C(=O)N[C@@H](CCCNC(=N)N)C(=O)N[C@@H](Cc1ccc(O)cc1)C(=O)N[C@@H](CSC1CC(=O)N(CCNC(=O)CCCCC[N+]2=C(/C=C/C=C/C=C3/N(CCCCS(=O)(=O)O)c4ccc(S(=O)(=O)O)cc4C3(C)C)C(C)(C)c3cc(S(=O)(=O)[O-])ccc32)C1=O)C(N)=O)[C@@H](C)O)C(C)C)C(C)C (some centres unmarked) [Cy5-P0_116–125] (Ac-YVFEKVPTRYC(X1)-NH2) |  | 150 (≈ 350 µg/mL) | −1.58 + 0.03 | 147 ± 80 |  |  |  |  |
| CC[C@H](C)[C@H](NC(=O)[C@H](CC(=O)O)NC(=O)[C@@H]1CCCN1C(=O)[C@@H]1CCCN1C(=O)[C@H](CC(N)=O)NC(=O)[C@H](CCCCN)NC(C)=O)C(=O)N[C@H](C(=O)NCC(=O)N[C@@H](CCCCN)C(=O)N[C@H](C(=O)N[C@@H](CO)C(=O)N[C@@H](CCC(N)=O)C(=O)N[C@H](C(=O)N[C@H](C(=O)N[C@@H](CC(C)C)C(=O)N[C@@H](Cc1ccc(O)cc1)C(=O)N[C@H](C(=O)N[C@@H](Cc1ccccc1)C(=O)N[C@@H](CCC(=O)O)C(=O)N[C@@H](CCCCN)C(=O)N[C@@H](CSC1CC(=O)N(CCNC(=O)CCCCCN2C(=CC=CC=CC3=[N+](CCCCS(=O)(=O)[O-])c4ccc(S(=O)(=O)O)cc4C3(C)C)C(C)(C)c3cc(S(=O)(=O)O)ccc32)C1=O)C(N)=O)C(C)C)[C@@H](C)O)C(C)C)[C@@H](C)O)C(C)C (some centres unmarked) [Cy5-P0_101–120] (Ac-KNPPDIVGKTSQVTLYVFEKC(X2)-NH2; N-terminus and C-terminus assumed) | 0.34 | 15 (≈ 49.4 µg/mL) |  |  |  | -0.99 ± 0.1 | twofold increase in brightness | 137,940 |
| CC[C@H](C)[C@H](NC(=O)[C@H](CC(=O)O)NC(=O)[C@@H]1CCCN1C(=O)[C@@H]1CCCN1C(=O)[C@H](CC(N)=O)NC(=O)[C@H](CCCCN)NC(C)=O)C(=O)N[C@@H](CSC1CC(=O)N(CCNC(=O)CCCCC[N+]2=C(/C=C/C=C/C=C3/N(CCCCS(=O)(=O)O)c4ccc(S(=O)(=O)O)cc4C3(C)C)C(C)(C)c3cc(S(=O)(=O)[O-])ccc32)C1=O)C(N)=O (some centres unmarked) [Cy5-P0_101–106] (Ac-KNPPDIC(X1)-NH2) | 0.53 | >400 |  |  |  | -0.95 ± 0.05 |  |  |
